Laboratory results reported in patent US20190136254A1, “ALS Inhibitor Herbicide Tolerant Mutant Plants” (BASF SE, priority 2013, published 2019).
Where a chain is given by its changes, count along the chain named. Names and notes keep the numbering of the source.

Key:
[1] = test system: Brassica napus hypocotyl derived callus; assay: Selection of hypocotyl derived callus on medium containing Foramsulfuron; type: cell-based
Protocol: Five day old seedlings were used for the preparation of hypocotyl segments 7-10 mm in length. Hypocotyl segments were transferred to 14 cm Petri plates containing 75 ml of M-338 [H76] callus induction medium (25 explants/plate). M-338 [H76] medium is MS salts and vitamins (Murashige and Skoog, 1962), 20 g/l sucrose, 0.5 g/l MES, 0.5 g/l adenine sulphate, 5 mg/l silver nitrate, 0.5 mg/l 2,4-D, 0.2 mg/l kinetin and solidified with 5.5 g/l agarose (pH 5.7). Dishes were sealed and cultured at 24° C. with standard light conditions (16 h/day). After 3 weeks, calli developing at the ends of the explants were transferred to fresh M-338 [H76] plates (25 calli/plate). Calli were subcultured to fresh medium every 3 weeks (larger calli cut into two pieces).
Hypocotyl derived callus (9 weeks old) was used for the selection of herbicide resistant mutants. Small pieces of callus were plated on M-338 [H76] medium containing 25 nM of the ALS inhibitor Foramsulfuron (CAS RN 173159-57-4). […] Dishes were cultured at 24° C. with standard light conditions (16 h/day). After 3 weeks, the calli were divided into 2 pieces each and replated on M-338 [H76] medium containing 50 nM Foramsulfuron. […]

[2] = molecular target: AHAS protein WT (Arabidopsis thaliana, UniProt P17597); assay: biochemical
Protocol: (§1) Bacteria are grown at 37° C. in LB-medium containing 100 mg/l carbenicillin and 25 mg/l canamycin, induced with 1 mM isopropyl-β-D-thiogalactopyranoside at an OD600 of 0.6, cultivated for 16 hours at 18° C. and harvested by, e.g., centrifugation. Bacterial pellets are resuspended in 100 mM sodium phosphate buffer pH 7.0 containing 0.1 mM thiamine-pyrophosphate, 1 mM MgCl2, and 1 μM FAD at a concentration of 1 gram wet weight per 25 ml of buffer and disrupted by, e.g., sonification. The crude protein extract obtained after centrifugation is used for ALS activity measurements.
(§2) ALS protein can be extracted from leaves or tissue cultures, such as B. napus or B. juncea leaves, or B. napus or B. juncea tissue cultures as described by Ray (Plant Physiol, 1984, 75:827-831). An ALS assays can be carried out in 96-well microtiter plates using a modification of the procedure described by Ray (1984): The reaction mixture contains 20 mM potassium phosphate buffer pH 7.0, 20 mM sodium pyruvate, 0.45 mM thiamine-pyrophosphate, 0.45 mM MgCl2, 9 μM FAD. ALS enzyme and various concentrations of ALS inhibitors can be mixed in a final volume of 90 μl. Assays can be initiated by adding enzyme and the assays can be terminated after 75 min incubation at 30° C. by the addition of 40 μl 0.5 M H2SO4.

[3] = molecular target: AHAS protein comprising the W574L mutation (Arabidopsis thaliana, UniProt P17597, W574L); assay: biochemical
Protocol: as §1, §2

[4] = molecular target: AHAS protein comprising the P197S mutation (Arabidopsis thaliana, UniProt P17597, P197S); assay: biochemical
Protocol: as §1, §2

[5] = molecular target: mixture of two ALS proteins, one comprising the P197S and the other the W574L mutation (Arabidopsis thaliana, UniProt P17597, P197S/W574L); assay: biochemical
[6] = molecular target: AHAS protein comprising both the P197S and W574L mutation in one ALS protein (Arabidopsis thaliana, UniProt P17597, P197S/W574L); type: biochemical; settings: both mutations in one ALS protein
Protocol: as §1, §2

[7] = Kinetic parameters of enzymatic activity of AHAS proteins; type: biochemical; settings: enzymatic activity of the AHAS protein
Protocol: The ALS inhibitor sensitivity and kinetic parameters of AHAS proteins comprising the P197S mutation, the W574L mutation, and both the P197S and W574L mutation in one ALS protein, were determined essentially as described in WO 2013/127766. ALS inhibitor sensitivity of a mixture of two ALS proteins, one of which comprising the P197S and the other comprising the W574L mutations were calculated as described in WO 2013/127766.

Sequence of AHAS protein comprising the W574L mutation (P17597 56-670 W574L): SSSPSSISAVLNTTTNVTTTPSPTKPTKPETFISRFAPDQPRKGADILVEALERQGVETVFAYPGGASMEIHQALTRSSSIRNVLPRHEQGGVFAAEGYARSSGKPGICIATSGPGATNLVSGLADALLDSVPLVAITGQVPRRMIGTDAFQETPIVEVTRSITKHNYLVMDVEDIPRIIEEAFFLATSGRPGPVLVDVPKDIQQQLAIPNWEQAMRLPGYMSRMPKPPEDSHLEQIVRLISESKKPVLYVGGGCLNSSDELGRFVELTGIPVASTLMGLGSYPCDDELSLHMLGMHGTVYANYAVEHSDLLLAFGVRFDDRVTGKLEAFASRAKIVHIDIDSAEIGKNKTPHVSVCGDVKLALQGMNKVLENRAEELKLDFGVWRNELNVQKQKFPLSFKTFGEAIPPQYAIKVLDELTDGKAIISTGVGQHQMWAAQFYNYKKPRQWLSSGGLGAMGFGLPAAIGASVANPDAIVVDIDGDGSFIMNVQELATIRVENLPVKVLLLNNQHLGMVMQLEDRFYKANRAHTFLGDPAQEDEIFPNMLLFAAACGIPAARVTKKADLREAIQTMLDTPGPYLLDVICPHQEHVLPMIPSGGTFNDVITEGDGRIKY
Sequence of AHAS protein comprising the P197S mutation (P17597 56-670 P197S): as the sequence (P17597 56-670 W574L) above, with P142S, L519W counted along it
Sequence of AHAS protein comprising both the P197S and W574L mutation in one ALS protein (P17597 56-670 P197S/W574L): as the sequence (P17597 56-670 W574L) above, with P142S counted along it
Sequence of mixture of two ALS proteins, one comprising the P197S and the other the W574L mutation (P17597 56-670 P197S/W574L): as the sequence (P17597 56-670 W574L) above, with P142S counted along it
Sequence of AHAS protein WT (P17597 56-670): as the sequence (P17597 56-670 W574L) above, with L519W counted along it

Molecule: COc1cc(OC)nc(NC(=O)NS(=O)(=O)c2cc(NC=O)ccc2C(=O)N(C)C)n1 [Foramsulfuron, foramsulfuron]
- effect on callus growth ([1]; 25 nM in M-338 [H76] medium, 9 weeks old hypocotyl derived callus): partially inhibitory to callus growth but not lethal
- effect on WT tissues ([1]; 250 nM in M-338 [H76] medium): clearly inhibitory to WT tissues
- IC50 [2]: 7.94 nM
- IC50 [3]: 50100 nM
- Resistance Factor W574L ([3]; AHAS W574L relative to WT): 5888
- IC50 [4]: 100 nM
- Resistance Factor P197S ([4]; AHAS P197S relative to WT): 12
- IC50 [5]: 2510 nM
- Resistance Factor P197S & W574L (mixture) ([5]; calculated mixture of two ALS proteins, relative to WT): 398
- pI50 P197S-W574L (in one protein) [6]: <4
- Resistance Factor P197S-W574L (in one protein) ([6]; relative to WT): >11748

B1: P197S: AHAS protein comprising the P197S mutation (protein, listed as Arabidopsis thaliana)
chain: MAAATTTTTTSSSISFSTKPSPSSSKSPLPISRFSLPFSLNPNKSSSSSRRRGIKSSSPSSISAVLNTTTNVTTTPSPTKPTKPETFISRFAPDQPRKGADILVEALERQGVETVFAYPGGASMEIHQALTRSSSIRNVLPRHEQGGVFAAEGYARSSGKPGICIATSGPGATNLVSGLADALLDSVPLVAITGQVSRRMIGTDAFQETPIVEVTRSITKHNYLVMDVEDIPRIIEEAFFLATSGRPGPVLVDVPKDIQQQLAIPNWEQAMRLPGYMSRMPKPPEDSHLEQIVRLISESKKPVLYVGGGCLNSSDELGRFVELTGIPVASTLMGLGSYPCDDELSLHMLGMHGTVYANYAVEHSDLLLAFGVRFDDRVTGKLEAFASRAKIVHIDIDSAEIGKNKTPHVSVCGDVKLALQGMNKVLENRAEELKLDFGVWRNELNVQKQKFPLSFKTFGEAIPPQYAIKVLDELTDGKAIISTGVGQHQMWAAQFYNYKKPRQWLSSGGLGAMGFGLPAAIGASVANPDAIVVDIDGDGSFIMNVQELATIRVENLPVKVLLLNNQHLGMVMQWQDRFYKANRAHTFLGDPAQEDEIFPNMLLFAAACGIPAARVTKKADLREAIQTMLDTPGPYLLDVICPHQEHVLPMIPSGGTFNDVITEGDGRIKY
- Km [7]: 5.5 mM
- Vmax [7]: 50.0 deltaOD550/min mg protein

B2: W574L: AHAS protein comprising the W574L mutation (protein, listed as Arabidopsis thaliana)
chain: B1 chain with S197P, W574L
- Km [7]: 7 mM
- Vmax [7]: 54.4 deltaOD550/min mg protein

B3: P197S-W574L (in one protein): AHAS protein comprising both the P197S and W574L mutation in one ALS protein (protein, listed as Arabidopsis thaliana)
chain: B1 chain with W574L
- Km [7]: 31.5 mM
- Vmax [7]: 87.7 deltaOD550/min mg protein
